Data on 30 molecules can be found in ChEMBL document CHEMBL1909492, “Discovery of 1-arylcarbonyl-6,7-dimethoxyisoquinoline derivatives as glutamine fructose-6-phosphate amidotransferase (GFAT) inhibitors” (Bioorg Med Chem Lett, 2011).

By IC50 is commonly meant the midpoint of a concentration-inhibition curve. As usually defined, the Ki is the dissociation constant of the complex between target and ligand, obtained from inhibition or displacement. In general, half-life refers to the time needed for the level to fall by half in the phase considered. By bioavailability is commonly meant the share of a dose that reaches the circulation, judged against a reference dose that is usually intravenous. As usually defined, the clearance is a measure of how efficiently the substance is removed, as volume per time. The Papp is the rate of passage across a membrane or cell layer, normalised by area and donor concentration. For orientation: Cmax means the maximum level reached in the sampled fluid or tissue. The logD is lipophilicity at a set pH, counting ionised and neutral species. As usually defined, the Vd is a proportionality between amount in the body and measured concentration, not a real space. A word on the Tmax: it is the time at which the peak concentration occurs. As usually defined, the AUC is the area under the concentration-time curve, a measure of exposure. By solubility is commonly meant the dissolved amount per volume that the medium holds.

Series [1] is described as follows: Inhibition of GFAT-beta expressed in COS cells using […] as substrate.
Series [2] deals with T1, Glutamine--fructose-6-phosphate aminotransferase [isomerizing] 1 (Homo sapiens, UniProt Q06210). Briefly: Irreversible inhibition of GFAT.
T1 sequence (Q06210 whole entry): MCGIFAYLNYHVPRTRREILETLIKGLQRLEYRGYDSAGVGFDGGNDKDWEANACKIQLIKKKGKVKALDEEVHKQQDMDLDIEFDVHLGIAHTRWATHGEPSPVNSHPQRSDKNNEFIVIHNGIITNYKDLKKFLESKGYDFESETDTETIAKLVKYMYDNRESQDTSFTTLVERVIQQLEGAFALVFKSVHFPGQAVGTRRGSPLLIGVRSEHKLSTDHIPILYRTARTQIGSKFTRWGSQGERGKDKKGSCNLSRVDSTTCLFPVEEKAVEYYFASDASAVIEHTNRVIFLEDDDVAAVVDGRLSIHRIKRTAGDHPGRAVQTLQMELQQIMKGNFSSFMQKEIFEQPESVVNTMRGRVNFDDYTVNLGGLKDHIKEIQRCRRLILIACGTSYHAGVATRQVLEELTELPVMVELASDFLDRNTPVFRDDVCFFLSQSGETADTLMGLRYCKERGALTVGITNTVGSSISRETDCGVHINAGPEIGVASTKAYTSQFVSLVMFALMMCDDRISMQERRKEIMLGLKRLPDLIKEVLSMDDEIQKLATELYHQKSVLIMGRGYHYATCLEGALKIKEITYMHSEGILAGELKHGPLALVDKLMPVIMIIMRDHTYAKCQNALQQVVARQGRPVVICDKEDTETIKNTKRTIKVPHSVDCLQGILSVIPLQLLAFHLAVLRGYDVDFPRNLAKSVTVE
Series [3] is described as follows: Photo-degradation of compound in DMSO at 1 mM after 2 hrs by HPLC/UV spectrophotometric analysis. Type of series: physicochemical. The following applies: read-out: Activity.
The target in series [4] is T1, Glutamine--fructose-6-phosphate aminotransferase [isomerizing] 1. Briefly: Reversible inhibition of GFAT.
For series [5], the system named is Mus musculus. As to the kind of experiment: Antidiabetic activity in fasted ob/ob mouse assessed as deduction of glucose excursion at 50 mg/kg, po at 4 hr and 1 hr prior to oral glucose challenge by oral glucose tolerance test. Type of series: functional, organism-based. Further details: dose 50 mg/kg.
The target in series [6] is T1, Glutamine--fructose-6-phosphate aminotransferase [isomerizing] 1. As to the kind of experiment: Noncompetitive inhibition of GFAT in presence of fructose-6-phosphate.
Series [7] is described as follows: Half life in rat at 10 mg/kg, iv. Type of series: ADME, organism-based. Further details: dose 10 mg/kg, route intravenous. The conditions noted are these: in vivo.
The nature of series [8]: Oral bioavailability in rat at 50 mg/kg. In kind it is ADME, organism-based. The following applies: in vivo.
The nature of series [9]: Clearance in rat at 10 mg/kg, iv. In kind it is ADME, organism-based. Further details: dose 10 mg/kg, route intravenous. The following applies: in vivo.
A short description of series [10]: Apparent permeability across human Caco2 cell membrane. In kind it is ADME, cell-based. The following applies: Caco-2. In general terms: Passage across Caco-2 layers is used to estimate intestinal permeability.
For series [11], the system named is Mus musculus. As to the kind of experiment: Antidiabetic activity in […] ob/ob mouse assessed decrease of glucose AUC at 50 mg/kg, po at 4 hr and 1 hr prior to oral glucose challenge by oral glucose tolerance test relative to control. In kind it is functional. Further details: scale not given: the % may be the effect or the level left.
Series [12] in a line: Photo-degradation of compound in DMSO exposed to daylight at 1 mM after 24 hrs by HPLC analysis. Type of series: physicochemical. The conditions noted are these: 1000 µM.
Series [13] is described as follows: Photo-degradation of compound in DMSO at 1 mM after 2 hrs by LC/MS analysis. In kind it is physicochemical. The following applies: read-out: Activity.
The target in series [14] is T1, Glutamine--fructose-6-phosphate aminotransferase [isomerizing] 1. Briefly: Competitive inhibition of GFAT in presence of glutamine.
Series [15] can be described thus: Cmax in rat at 50 mg/kg, po. Type of series: ADME, organism-based. Further details: dose 50 mg/kg, route oral. The conditions noted are these: in vivo.
A short description of series [16]: Lipophilicity, log D of the compound at pH 7.2. In kind it is physicochemical. The following applies: buffer.
Series [17] can be described thus: Volume of distribution in rat at 10 mg/kg, iv. Further details: dose 10 mg/kg, route intravenous. Type of series: ADME, organism-based. The following applies: in vivo.
A short description of series [18]: Tmax in rat at 50 mg/kg, po. Further details: dose 50 mg/kg, route oral. The conditions noted are these: in vivo. In kind it is ADME, organism-based.
A short description of series [19]: AUC in rat at 10 mg/kg, iv. In kind it is ADME, organism-based. On the set-up: dose 10 mg/kg, route intravenous. The conditions noted are these: plasma.
The nature of series [20]: Photo-degradation of compound in solid state over years by HPLC analysis. In kind it is physicochemical.
The nature of series [21]: AUC in rat at 50 mg/kg, po. The following applies: plasma. On the set-up: dose 50 mg/kg, route oral. In kind it is ADME, organism-based.
Series [22] can be described thus: Solubility of the compound at pH 6.4. In kind it is physicochemical. The following applies: buffer.
Series [23] deals with T1, Glutamine--fructose-6-phosphate aminotransferase [isomerizing] 1. As to the kind of experiment: Inhibition of GFAT using […] as substrate.

The structures appear in SMILES notation. In brackets after ≈: the same amount, converted by molar mass. Activity calls are given as the source filed them.

`COc1cc2c(C(=O)O)cnc(C(=O)c3c(F)ccc(OC)c3F)c2cc1OC` yielded an IC50 in series [1] of 940 nM.
The molecule `COc1cccc(C(=O)c2ncc(C(=O)O)c3ccc(OC)cc23)c1` returned an IC50 in [1] of over 100000 nM.
For `COc1cccc(C(=O)c2ncc(C(=O)O)c3ccccc23)c1`, in series [1], the IC50 was over 100000 nM.
The molecule `COC(=O)/C=C/C(=O)NC[C@H](N)C(=O)O` registered an IC50 in [2] of 400 nM.
For `COc1cc2c(C(=O)O)cnc(C(=O)c3cc(OC(C)C)ccc3F)c2cc1OC`, half-maximal inhibition in [1] (IC50) required 2500 nM. Besides, the degraded at 2 h, 1000 µM in series [3] came to 22%.
With `COc1cc2c(CNC(C)=O)cnc(C(=O)c3cccc(OC(C)C)c3)c2cc1OC`, the IC50 in series [1] was determined as 1100 nM.
The same measure, in the same setting: with `COc1cccc(C(=O)c2ncc(C(=O)O)c3cc(OC)ccc23)c1` the figure was over 100000 nM; with `COc1cc2c(CNS(=O)(=O)C(F)(F)F)cnc(C(=O)c3c(F)cccc3F)c2cc1OC`, 4330 nM; with `COc1cc2c(Cn3oc(=O)[nH]c3=O)cnc(C(=O)c3cccc(OC(C)C)c3)c2cc1OC`, 580 nM.
As for `COc1cccc(C(=O)c2ncc(C(=O)O)c3cc(O)c(OC)cc23)c1`, the 50% inhibitory concentration (IC50) in series [1] is over 100000 nM.
For `COc1cc2c(C(=O)O)cnc(C(=O)c3cccc(OC(C)C)c3)c2cc1OC`, in series [1], the IC50 turned out to be 720 nM. In addition, the degraded at 2 h, 1000 µM in [3] turned out to be 75.9%.
`COc1cccc(C(=O)c2ncc(C(=O)O)c3cc(OC)c(OC)cc23)c1` gave an IC50 in series [1] of 1200 nM.
On the same count and under the same terms, next, `COc1cc2c(CNS(C)(=O)=O)cnc(C(=O)c3cccc(OC(C)C)c3)c2cc1OC`: 900 nM.
Take `COc1cc2c(C(=O)O)cnc(C(=O)c3c(F)cccc3F)c2cc1OC`: the inhibition result in [4] was “Active”. The molecule further showed an IC50 in series [1] of 9930 nM. In addition, in series [3], the degraded at 2 h, 1000 µM worked out at 0%.
Turning to `COc1ccc(Cc2ncc(C(=O)O)c3cc(OC)c(OC)cc23)cc1OC`, the IC50 in [1] was over 100000 nM.
In series [1], `COc1ccc(F)c(C(=O)c2ncc(C(=O)O)c3cc(OC)c(OC)cc23)c1` had an IC50 of 870 nM. In addition, the degraded at 2 h, 1000 µM in series [3] is 25.4%.
For `COc1ccc(F)c(C(=O)c2ncc(CNS(=O)(=O)C(F)(F)F)c3cc(OC)c(OC)cc23)c1`, half-maximal inhibition in series [1] (IC50) was put at 680 nM.
Molecule `COc1cc2c(CC(=O)O)cnc(C(=O)c3cc(OC(C)C)ccc3F)c2cc1OC` had an IC50 in series [1] of 1900 nM.
Take `COc1cc2c(C(=O)O)cnc(C(=O)c3ccccc3)c2cc1OC`: the IC50 in [1] amounted to 10000 nM.
As to `COc1cc2c(CNS(=O)(=O)C(F)(F)F)cnc(C(=O)c3cccc(OC(C)C)c3)c2cc1OC`, the result in the series on Mus musculus [5] was Active. Further, the Ki in series [6] and in [14] was 300 nM each time. In series [7], this molecule had a half-life of 1.68 h. For the same molecule, the bioavailability in series [8] was found to be 91%. Besides, the inhibition entry in series [4] is “Active”. Moreover, the clearance in series [9] worked out at 3.2 mL/min/kg. In addition, the Papp in [10] was 35.7 ×10⁻⁶ cm/s. The molecule further came in with an Activity with Mus musculus [11] of over 35%. Besides, the Stability entry in series [12] and in [20] was “Stable” each time. For the same molecule, the IC50 in series [1] came to 1000 nM. In series [13], the degraded at 2 h, 1000 µM was found to be 30%. The same molecule registered a Cmax in [15] of 112 µM. Further, the pH-dependent lipophilicity (logD) in series [16] was 2.89. In series [17], the Vd was 0.4 L/kg. For the same molecule, the Tmax in [18] was found to be 1 h. Further, the AUC in series [19] came out at 52.3 µg·h/mL; in series [21], 239 µg·h/mL. Further, the solubility in series [22] was 3 µg/mL (≈ 5.85 µM).
Turning to `CCOc1cccc(C(=O)c2ncc(-c3nn[nH]n3)c3cc(OC)c(OC)cc23)c1`, in series [1], the IC50 was 800 nM.
`COc1cccc(NC(=O)c2ncc(C(=O)O)c3cc(OC)c(OC)cc23)c1` gave an IC50 in [1] of over 100000 nM.
Same read-out and setting: next, `COc1ccc(C(=O)c2ncc(C(=O)O)c3cc(OC)c(OC)cc23)cc1`: over 100000 nM.
On the same count and under the same terms, next, `COc1cccc(C(O)c2ncc(C(=O)O)c3cc(OC)c(OC)cc23)c1` (centres undefined): over 100000 nM.
Still for that read-out and setting: with `COc1cc2c(C(=O)O)cnc(C(=O)c3c(F)ccc(OC(C)C)c3F)c2cc1OC` the figure was 900 nM.
In series [2], `N[C@@H](CNC(=O)CBr)C(=O)O` yielded an IC50 of 150 nM.
Regarding `CCOc1cccc(C(=O)c2ncc(C(=O)O)c3cc(OC)c(OC)cc23)c1`, in [1], the IC50 was determined as 830 nM.
Same read-out and setting: next, `COc1ccc(C(=O)c2ncc(C(=O)O)c3cc(OC)c(OC)cc23)cc1OC`: 20000 nM; `COc1cc2c(CN3C(=O)CSC3=O)cnc(C(=O)c3cccc(OC(C)C)c3)c2cc1OC`: 820 nM.
`COc1cc2ccnc3c2c(c1OC)NC=C3` [AAPTAMINE]: the IC50 in series [23] turned out to be 120000 nM.
